Laboratory results: paper PMC9917560, “Design, Synthesis and Antimicrobial Evaluation of New N-(1-Hydroxy-1,3-dihydrobenzo[c][1,2]oxaborol-6-yl)(hetero)aryl-2-carboxamides as Potential Inhibitors of Mycobacterial Leucyl-tRNA Synthetase” (International Journal of Molecular Sciences, 2023)
Converted amounts (≈) assume the structure as drawn. Read-outs that look alike come from different tables or passages of the source.

Tests used:
[1] = test system: Pseudomonas aeruginosa CCM 3955 (ATCC 27853); assay: Antibacterial microdilution broth (EUCAST); assay type: cell-based; details: read-out: MIC Pseudomonas aeruginosa
[2] = test system: methicillin-resistant Staphylococcus aureus subsp. aureus (MRSA) CCM 4750 (ATCC 43300); assay: microbe, parasite or virus in culture; assay type: cell-based; details: read-out: MIC Methicillin-resistant Staphylococcus aureus subsp. aureus
[3] = test system: Mycolicibacterium aurum DSM 43,999 (ATCC 23366); assay: Antimycobacterial microdilution (resazurin) vs M. aurum; assay type: cell-based; details: read-out: MIC M. aurum
[4] = test system: Trichophyton interdigitale CCM 8377 (ATCC 9533); assay: Antifungal microdilution broth (EUCAST); assay type: cell-based; details: Trichophyton interdigitale, read-out: MIC Trichophyton interdigitale
[5] = test system: Mycobacterium tuberculosis H37Rv CNCTC My 331/88 (ATCC 27294); assay: Microplate Alamar Blue assay vs Mtb H37Rv; assay type: cell-based; details: Mycobacterium tuberculosis
[6] = test system: Staphylococcus aureus subsp. aureus CCM 4223 (ATCC 29213); assay: Antibacterial microdilution broth (EUCAST); assay type: cell-based; details: read-out: MIC Staphylococcus aureus subsp. aureus
[7] = test system: Lichtheimia corymbifera CCM 8077; assay: Antifungal microdilution broth (EUCAST); assay type: cell-based; details: Lichtheimia corymbifera, CCM8077, read-out: MIC Lichtheimia corymbifera
[8] = test system: Acinetobacter baumannii DSM 30007 (ATCC 19606); assay: Antibacterial microdilution broth (EUCAST); assay type: cell-based; details: read-out: MIC Acinetobacter baumannii
[9] = test system: Aspergillus fumigatus ATCC 204305; assay: Antifungal microdilution broth (EUCAST); assay type: cell-based; details: Aspergillus fumigatus, ATCC204305, read-out: MIC Aspergillus fumigatus
[10] = test system: Candida tropicalis CCM 8264 (ATCC 750); assay: Antifungal microdilution broth (EUCAST); assay type: cell-based; details: read-out: MIC Candida tropicalis
[11] = test system: Mycobacterium tuberculosis H37Ra ITM-M006710 (ATCC 9431); assay: Antimycobacterial microdilution (resazurin) vs Mtb H37Ra; assay type: cell-based
[12] = test system: Enterococcus faecalis CCM 4224 (ATCC 29212); assay: Antibacterial microdilution broth (EUCAST); assay type: cell-based; details: read-out: MIC Enterococcus faecalis
[13] = test system: Mycobacterium avium DSM 44,156 (ATCC 25291); assay: Antimycobacterial microdilution (resazurin) vs M. avium; assay type: cell-based; details: Mycobacterium avium, Middlebrook 7H9, resazurin; read-out: MIC M. avium
[14] = test system: Candida parapsilosis CCM 8260 (ATCC 22019); assay: Antifungal microdilution broth (EUCAST); assay type: cell-based; details: Lodderomyces parapsilosis, read-out: MIC Candida parapsilosis
[15] = test system: Escherichia coli CCM 3954 (ATCC 25922); assay: Antibacterial microdilution broth (EUCAST); assay type: cell-based; details: Escherichia coli, read-out: MIC Escherichia coli
[16] = test system: Klebsiella pneumoniae CCM 4415 (ATCC 10031); assay: Antibacterial microdilution broth (EUCAST); assay type: cell-based; details: Klebsiella pneumoniae, read-out: MIC Klebsiella pneumoniae
[17] = test system: Mycobacterium kansasii DSM 44,162 (ATCC 12478); assay: Antimycobacterial microdilution (resazurin) vs M. kansasii; assay type: cell-based; details: read-out: MIC M. kansasii
[18] = test system: Candida albicans CCM 8320 (ATCC 24433); assay: Antifungal microdilution broth (EUCAST); assay type: cell-based; details: Candida albicans, read-out: MIC Candida albicans
[19] = test system: Candida krusei CCM 8271 (ATCC 6258); assay: Antifungal microdilution broth (EUCAST); assay type: cell-based; details: Pichia kudriavzevii, read-out: MIC Candida krusei
[20] = test system: Mycolicibacterium smegmatis DSM 43,465 (ATCC 607); assay: Antimycobacterial microdilution (resazurin) vs M. smegmatis; assay type: cell-based; details: Middlebrook 7H9, resazurin, read-out: MIC M. smeg.
[21] = test system: Staphylococcus epidermidis CCM 4418 (ATCC 12228); assay: Antibacterial microdilution broth (EUCAST); assay type: cell-based; details: read-out: MIC Staphylococcus epidermidis
HepG2 cell line = assay: Cytotoxicity screening, CellTiter 96 assay; details: Homo sapiens, HepG2, 24 h, read-out: IC50 HepG2
[22] = test system: Aspergillus flavus CCM 8363; assay: Antifungal microdilution broth (EUCAST); assay type: cell-based; details: Aspergillus flavus, CCM8363, read-out: MIC Aspergillus flavus

O=C(Nc1ccc2c(c1)B(O)OC2)c1nc2ccccc2[nH]c1=O [Compound 18, N-(1-hydroxy-1,3-dihydrobenzo[c][1,2]oxaborol-6-yl)-3-oxo-3,4-dihydroquinoxaline-2-carboxamide]
melting point: 348.9 to 350.2 °C (dec.)
MIC ([1]; 24h incubation): > 500 µM
MIC ([1]; 48h incubation): > 500 µM
MIC ([2]; 24 h): > 500 µM
MIC ([2]; 48 h): > 500 µM
MIC ([3]; Middlebrook 7H9, resazurin): 24.3 µM (≈ 7.81 µg/mL)
MIC ([4]; 72h incubation): > 125 µM
MIC ([4]; 120h incubation): > 125 µM
MIC ([5]; pH 6.6, read-out: MIC Mtb H37Rv, MABA, Middlebrook 7H9 pH 6.6, recalculated from µg/mL): > 311 µM
MIC ([6]; 24h incubation): > 500 µM
MIC ([6]; 48h incubation): > 500 µM
MIC ([7]; 24h incubation): > 125 µM
MIC ([7]; 48h incubation): > 125 µM
MIC ([8]; 24h incubation): > 500 µM
MIC ([8]; 48h incubation): > 500 µM
MIC ([9]; 24h incubation): > 125 µM
MIC ([9]; 48h incubation): > 125 µM
MIC ([10]; 24h incubation): > 125 µM
MIC ([10]; 48h incubation): > 125 µM
MIC ([11]; read-out: MIC Mtb H37Ra, Middlebrook 7H9, resazurin, recalculated from µg/mL): > 1850 µM
MIC ([12]; 24h incubation): > 500 µM
MIC ([12]; 48h incubation): > 500 µM
MIC [13]: 48.7 µM (≈ 15.6 µg/mL)
MIC ([14]; 24h incubation): > 125 µM
MIC ([14]; 48h incubation): > 125 µM
MIC ([15]; 24h incubation): > 500 µM
MIC ([15]; 48h incubation): > 500 µM
MIC ([16]; 24h incubation): > 500 µM
MIC ([16]; 48h incubation): > 500 µM
MIC [17]: > 1850 µM
MIC ([18]; 24h incubation): > 125 µM
MIC ([18]; 48h incubation): > 125 µM
MIC ([19]; 24h incubation): > 125 µM
MIC ([19]; 48h incubation): > 125 µM
MIC [20]: 24.3 µM (≈ 7.81 µg/mL)
MIC ([21]; 24h incubation): > 500 µM
MIC ([21]; 48h incubation): > 500 µM
IC50 (HepG2 cell line): 244 µM
MIC ([22]; 24h incubation): > 125 µM
MIC ([22]; 48h incubation): > 125 µM

O=C(Nc1ccc2c(c1)B(O)OC2)c1ccc(Cl)s1 [Compound 15, 5-chloro-N-(1-hydroxy-1,3-dihydrobenzo[c][1,2]oxaborol-6-yl)thiophene-2-carboxamide]
melting point: 234.9 to 237.1 °C
MIC ([1]; 24h incubation): > 500 µM
MIC ([1]; 48h incubation): > 500 µM
MIC ([2]; 24 h): 500 µM (≈ 147 µg/mL)
MIC ([2]; 48 h): 500 µM (≈ 147 µg/mL)
MIC [3]: 53.2 µM (≈ 15.6 µg/mL)
MIC ([4]; 72h incubation): > 500 µM
MIC ([4]; 120h incubation): > 500 µM
MIC ([5]; pH 6.6, MABA, Middlebrook 7H9 pH 6.6, recalculated from µg/mL, read-out: MIC Mtb H37Rv): 42.6 µM (≈ 12.5 µg/mL)
MIC ([6]; 24h incubation): 500 µM (≈ 147 µg/mL)
MIC ([6]; 48h incubation): 500 µM (≈ 147 µg/mL)
MIC ([7]; 24h incubation): > 500 µM
MIC ([7]; 48h incubation): > 500 µM
MIC ([8]; 24h incubation): > 500 µM
MIC ([8]; 48h incubation): > 500 µM
MIC ([9]; 24h incubation): > 500 µM
MIC ([9]; 48h incubation): > 500 µM
MIC ([10]; 24h incubation): > 500 µM
MIC ([10]; 48h incubation): > 500 µM
MIC ([11]; Middlebrook 7H9, resazurin, recalculated from µg/mL, read-out: MIC Mtb H37Ra): 53.2 µM (≈ 15.6 µg/mL)
MIC ([12]; 24h incubation): > 500 µM
MIC ([12]; 48h incubation): > 500 µM
MIC [13]: 426 µM (≈ 125 µg/mL)
MIC ([14]; 24h incubation): > 500 µM
MIC ([14]; 48h incubation): > 500 µM
MIC ([15]; 24h incubation): > 500 µM
MIC ([15]; 48h incubation): > 500 µM
MIC ([16]; 24h incubation): > 500 µM
MIC ([16]; 48h incubation): > 500 µM
MIC ([17]; Middlebrook 7H9, resazurin): 106 µM (≈ 31.3 µg/mL)
MIC ([18]; 24h incubation): > 500 µM
MIC ([18]; 48h incubation): > 500 µM
MIC ([19]; 24h incubation): > 500 µM
MIC ([19]; 48h incubation): > 500 µM
MIC [20]: 852 µM (≈ 250 µg/mL)
MIC ([21]; 24h incubation): 500 µM (≈ 147 µg/mL)
MIC ([21]; 48h incubation): 500 µM (≈ 147 µg/mL)
IC50 (HepG2 cell line): 210 µM
MIC ([22]; 24h incubation): > 500 µM
MIC ([22]; 48h incubation): > 500 µM
